Experimental data published in publication PMC7943581, “Tumor-penetrating therapy for β5 integrin-rich pancreas cancer” (Nature Communications, 2021).

Tests used:
[1] = tested on: KPC mouse tumors; experiment: Modified Miles assay, Evans Blue with iRGD co-injection; format: in vivo; details: IV 100 μl 1% Evans blue then 100 μg iRGD or PBS, 40 min, OD 600 nm, Fig S14
Procedure: The experiments were performed as described earlier[20],[38]. In brief, for Miles assays, anesthetized mice were warmed to 37 °C for 10 min, followed by an IV bolus of 100 μl of 1% Evans blue dye and then 100 μg of iRGD. After 40 min, the mice under deep anesthesia were perfused through the heart with PBS containing 1% BSA and the organs were harvested for dye extraction using […]. OD 600 nm of the supernatant was measured. For dextran delivery, mice were intravenously injected with 0.3 mg of iRGD followed by 0.3 mg of 10 kDa Alexa 647-conjugated fixable dextran (Invitrogen). After 1 h of circulation, mice were perfused with PBS containing 1% BSA and the organs were harvested and processed for immunofluorescence.

[2] = tested on: NRP-1 expression in PC3 cells; experiment: Cell surface NRP-1 expression in PC3 cells with TGF-β or LY2157299; format: cell-based, human; details: Fig 4F
Procedure: (§1) Spheroids were generated by incubating 5 × 10^4 cells per well in 24-well low binding plates for 3 days. For co-culture studies, spheroids prepared with a mixture of 5 × 10^4 CAFs and 10^4 tumor cells per well were used. In some cases, spheroids were maintained in CM for 2 days in the presence or absence of 10 μM dimethyl sulfoxide (DMSO) or a specific TGF-β inhibitor LY2157299 (PeproTech, Princeton, NJ). The CM was prepared from the supernatant of 3-day-old cultures of CAFs or tumor cells, which was centrifuged at 2000×g for 40 min to remove cellular debris. Some spheroids were incubated in the presence of 30 ng/ml human TGF-β (eBioscience, San Diego, CA) for 48 h.
(§2) Cells were trypsinized into a single cell suspension before staining. The primary antibodies were mouse anti-human αvβ3 (1 μg/sample) (Clone LM609 Cat no. MAB1976, EMD Millipore, Billerica, MA), mouse anti-human αvβ5 (1 μg) (Clone P1F6, Cat no. MAB1961 EMD Millipore), rat anti-mouse αv (1 μg) (Clone RMV7, Cat no. 50-104-13, eBioscience), rabbit anti-human NRP-1 b1b2[20] (1 μg), and Alexa 647 or BV421-conjugated mouse anti-human/mouse αvβ5 (1:50) (clone ALULA Cat no. 565836 or 743669, BD Biosciences, San Jose, CA). The primary antibodies were detected with corresponding secondary antibodies conjugated with Alexa 488, 594, or 647 (1:250) (Invitrogen). The cells were analyzed with an LSR Fortessa System (BD Biosciences), and the data were analyzed with a FlowJo software. Cells were gated on single cells and then on live cells by excluding DAPI or PI positive cells. In tumor cell/CAF co-culture experiments, mCherry high cells were gated in order to define the mCherry-labeled CAFs. For iRGD-AgNP uptake quantification, specific uptake was defined by gating cells positive for either Alexa 647 or 488, which were attached to the AgNPs.
(§3) Spheroids were dissociated into a single cell suspension as described in the previous section. The cells were subjected to flow cytometry to analyze the protein expression of αvβ3 and αvβ5 integrins and NRP-1. The flow cytometry was performed as described in a previous section. Some cells were also subjected to qPCR to analyze mRNA expression of αv (ITGav) and ITGb5 integrin subunits, TGF-β, and ZEB1. Total RNA was extracted using Trizol Reagent (Invitrogen), and cDNA was generated using a SuperScript III First-strand Synthesis System (Invitrogen). qPCR was performed using SYBR green in an ABI 7900 HT (Applied Biosystems, Foster City, CA). The results were normalized against β-actin and cyclophilin A. The list of primers can be found in Supplementary Table 1.

[3] = tested on: αvβ5 integrin expression in PC3 cells; experiment: Cell surface αvβ5 integrin expression in PC3 cells with TGF-β or LY2157299; format: cell-based, human; details: for avb5 MFI: Fig 4E
Procedure: as §1, §2, §3

[4] = tested on: mPCFAA0779 CAFs and LM-PmC cells; experiment: Peptide entry in 2D co-cultures (confocal microscopy); format: cell-based, mouse; details: 2D co-culture, 20 μM peptide, 4 h, 37 °C
Procedure: A mixture of tumor cells and CAFs at a 2:1 ratio was grown on collagen I-coated coverslips (BD Biosciences) overnight or until they became confluent. The cells were incubated with 20 μM of FAM-labeled peptides for 4 h at 37 °C. The cells were briefly rinsed with warm PBS, fixed in warm 4% paraformaldehyde, and stained with DAPI (1:1000). The cells were visualized with a Fluoview 500 confocal microscope (Olympus America, Center Valley, PA).

[5] = tested on: PDAC in KPC mice; experiment: Long-term treatment of KPC mice, gemcitabine with or without iRGD; format: in vivo, mouse
Procedure: One hundred micrograms of FAM-labeled peptide dissolved in 100 μl of PBS was intravenously injected into tumor mice, and allowed to circulate for 15, 30, or 60 min. The mice were perfused through the heart under deep anesthesia using PBS containing 1% BSA, and tissues were harvested, fixed with 4% PFA overnight, washed three times with PBS, and then transferred to 30% sucrose prior to embedding in optimal cutting temperature compound (OCT). In some cases, the FAM signal was enhanced with an anti-fluorescein antibody (1:200) (Cat no. A-889, Invitrogen) followed by a secondary anti-rabbit Alexa 488 antibody (1:200) (Invitrogen). Other antibodies used for immunofluorescence were anti-FAP (1:100) (Cat. no. ABT-11, Millipore Sigma, Temecula, CA), Cy3-anti-αSMA (1:100) (Clone 1A4, Cat. no. C6198, Millipore Sigma), anti-ER-TR7 (1:100) (Cat. no. SC-73355, Santa Cruz Biotechnology, Dallas, TX), rabbit anti-mouse β5 integrin (1:200) (Cat. no. 15459, GeneTex, Irvine, CA), rabbit monoclonal anti-Ki67 (1:200) (Clone SP6, Cat. no. ab16667, Abcam), mouse monoclonal anti-αSMA (0.034 μg/ml) (Clone 1A4, Cat. no. ab7817, Abcam), and rat anti-mouse CD31(1:100) (Clone MEC 13.3, Cat. no. 550274, BD Biosciences) antibodies. The sections were also stained with 4′,6-diamidino-2-phenylindole (DAPI) (1:1000) (Invitrogen). The stained tissue sections were examined with a Zeiss confocal microscope (Zeiss, Dublin, CA). To quantify FAM-iRGD homing (green) and its colocalization with CAFs (red), confocal micrographs were converted to RGB color mode and analyzed with an ImageJ software for the intensity and areas positive for one or both colors. Six to eight random fields per tumor were chosen and repeated in three tumor mice for each time point. For intraductal spreading of FAM-iRGD, cancerous ducts with or without FAM-iRGD signal were manually counted per field of view in confocal micrographs. Six random fields were chosen for each of the three tumors at both time points.
Immunohistochemistry was performed as described previously. Briefly, paraffin-embedded sections were cleared, rehydrated, and subjected to steam heat-mediated antigen retrieval using low or high pH buffer (eBioscience). Endogenous peroxidase activity was blocked with BloxALL (Vector, Burlingame, CA). Blocking was performed with 10% donkey or goat serum plus 5% BSA. The sections were treated with a rabbit anti-αvβ5 polyclonal antibody (1:200) (Cat. no. bs-1356R, BIOSS, Woburn, MA) or a rabbit polyclonal anti-cleaved caspase 3 antibody (1:250) (Cat. no. 9579S, Cell Signaling) at 4 °C overnight and incubated with ImmPRESS (IHC-P, rabbit, MP-7401) secondary antibody reagent (Vector, Burlingame, CA). The sections were counter stained with hematoxylin and eosin (H&E) and viewed with a Nikon Eclipse E-600 bright field microscope.
KPC mice with PDAC of ~4–5 mm confirmed by palpation and ultrasound imaging were randomized into respective treatment cohorts: iRGD alone (100 μg/IV injection, n = 10); gemcitabine (TSZ Chem, Waltham, MA) (100 mg/kg/IP injection, n = 18); iRGD + gemcitabine (n = 16). The treatment was given every 4 days until the mice met the criteria for sacrifice defined by the IACUC. Survival curves were drawn and analyzed using GraphPad (Prism8) software. In another study, the KPC mice were randomized into gemcitabine (100 mg/kg/IP injection) + nab-paclitaxel composed of mouse albumin (30 mg/kg/IP injection) or iRGD (100 μg/IV injection) + gemcitabine + nab-paclitaxel. […]

Cc1cc(-c2ccc(/N=N/c3ccc4c(S(=O)(=O)O)cc(S(=O)(=O)O)c(N)c4c3O)c(C)c2)ccc1/N=N/c1ccc2c(S(=O)(=O)O)cc(S(=O)(=O)O)c(N)c2c1O [PBS + EB, Evans Blue]
Evans Blue in KPC mouse tumors normalized against wet tissue weight ([1]; Exp 1): 0.004 µg/mL/mg
Evans Blue in KPC mouse tumors normalized against wet tissue weight ([1]; Exp 2): 0.07 µg/mL/mg
Evans Blue in KPC mouse tumors normalized against wet tissue weight ([1]; Exp 3): -0.074 µg/mL/mg

Cc1cccc(-c2nn3c(c2-c2ccnc4ccc(C(N)=O)cc24)CCC3)n1 [LY2157299]
NRP1 MFI ([2]; PC3, CAFCM+LY, Exp1): 4550
NRP1 MFI ([2]; PC3, CAFCM+LY, Exp2): 2287
NRP1 MFI ([2]; PC3, CAFCM+LY, Exp3): 2840
NRP1 MFI ([2]; PC3, NM+TGFb+LY, Exp1): 11021
NRP1 MFI ([2]; PC3, NM+TGFb+LY, Exp2): 3760
NRP1 MFI ([2]; PC3, NM+TGFb+LY, Exp3): 6318
effect on CAF CM-induced αvβ5 expression in PC3 cells ([3]; 10 μM, 2 days in CM): completely blocked
avb5 MFI ([3]; PC3, CAFCM+LY, Exp1): 4907
avb5 MFI ([3]; PC3, CAFCM+LY, Exp2): 3245
avb5 MFI ([3]; PC3, CAFCM+LY, Exp3): 2633
avb5 MFI ([3]; PC3, CAFCM+LY, Exp4): 2959
avb5 MFI ([3]; PC3, NM+TGFb+LY, Exp1): 4584
avb5 MFI ([3]; PC3, NM+TGFb+LY, Exp2): 3278
avb5 MFI ([3]; PC3, NM+TGFb+LY, Exp3): 2186
avb5 MFI ([3]; PC3, NM+TGFb+LY, Exp4): 2450

FAM-CRGDC
entry of FAM-labeled peptide into cells [4]: to a much lesser extent than FAM-iRGD

Nc1ccn([C@@H]2O[C@H](CO)[C@@H](O)C2(F)F)c(=O)n1 [Gem, gemcitabine]
liver metastases (median) ([5]; KPC mice, necropsy of random samples, not significant): 26
lung metastases (median) ([5]; KPC mice, necropsy of random samples, p = 0.03): 9
survival at 180 days ([5]; KPC mice, treatment every 4 days): 0%
median survival ([5]; KPC mice, treatment every 4 days, n = 16 combination, n = 18 gemcitabine): 71 days

CRGDK/RGPD/EC [iRGD, iRGD tumor-penetrating peptide (CRGDK/RGPD/EC)]
therapeutic benefit vs historical survival of untreated KPC mice ([5]; iRGD alone 100 μg IV every 4 days, n = 10, Fig S15): did not provide any therapeutic benefit

CRGEKGPDC [FAM-iRGE, variant peptide (…) with the RGD motif changed to RGE, FAM-labeled]
entry of FAM-labeled peptide into cells [4]: minimal affinity to the cells

TGF-β
NRP1 MFI ([2]; PC3, NM+TGFb+DMSO, Exp1): 12904
NRP1 MFI ([2]; PC3, NM+TGFb+DMSO, Exp2): 3924
NRP1 MFI ([2]; PC3, NM+TGFb+DMSO, Exp3): 4995
avb5 MFI ([3]; PC3, NM+TGFb+DMSO, Exp1): 7502
avb5 MFI ([3]; PC3, NM+TGFb+DMSO, Exp2): 9515
avb5 MFI ([3]; PC3, NM+TGFb+DMSO, Exp3): 6238
avb5 MFI ([3]; PC3, NM+TGFb+DMSO, Exp4): 5783
effect of exogenous TGF-β on αvβ5 expression ([3]; cultured PC3 cells, 30 ng/ml, 48 h): reproduced the CAF CM-induced increase in αvβ5 expression
